A short description of data set [1]: Metabolic stability in rat liver microsomes. The class given is in vitro ADME. To be noted: pH 7.4, 0.5 mg/mL, NADPH, 37° C., mean ± S.E.M. On the procedure:
Metabolic stability assessment was performed by Paraza Pharma Inc. (Montreal, Canada).
Compounds were incubated with rat liver microsomes at 37° C. for a total of 45 minutes. The reaction was performed at pH 7.4 in 100 mM potassium phosphate buffer containing 0.5 mg/mL of rat liver microsomal protein. Phase I metabolism was assessed by adding NADPH to a final concentration of 1 mM and collecting samples at time points 0, 5, 15, 30 and 45 minutes. All collected samples were quenched 1:1 with ice-cold stop solution (1 μM labetalol and 1 μM glyburide in acetonitrile), and centrifuged to remove precipitated protein. Resulting supernatants were further diluted 1:4 with acetonitrile:water (1:1). Samples were analyzed by LC/MS/MS and calculations for half-life, and in-vitro clearance were accomplished using Microsoft Excel (2007).

For data set [2], the system named is cocaine-seeking behavior in rats. The experiment in a line: Reinstatement of extinguished cocaine-seeking behavior. The class given is in vivo, rat. The protocol:
Animals: Adult male Sprague-Dawley rats (Harlan, Indianapolis, Ind.) weighing 280-300 g were used in the study. Animals were housed individually on a 12/12 hr light/dark cycle (behavioral experiments were conducted during the light period) with free access to water and food except during experimental sessions. Animals were maintained and experiments conducted in accordance with the Institutional Animal Care and Use Committee, University at Buffalo, and with the 2011 Guide for the Care and Use of Laboratory Animals (Institute of Laboratory Animal Resources on Life Sciences, National Research Council, National Academy of Sciences, Washington D.C.).
Drug self-administration, extinction and reinstatement: The reinstatement procedure was described in detail elsewhere^37, 38. Briefly, rats were surgically implanted with a chronic indwelling jugular catheter. After one-week recovery, rats were trained to press the active lever (left lever) for infusion of cocaine (0.75 mg/kg/inf) under a fixed ratio [FR] schedule (starting FR=1, which was increased to FR 5 within 5 training sessions) schedule during daily 2-hr sessions for 14 days. Reinforcer deliveries were accompanied by the presentation of a stimulus light over the active lever followed by a 30-s time-out period during which lever presses had no programmed consequence. Following acquisition of cocaine self-administration, extinction of drug-seeking behavior took place during 2-hr daily sessions in which lever pressing produced no consequence. All other conditions remained unchanged. After 7 days of extinction, all rats reached the extinction criteria (total responses less than 20% of the training sessions).
Drug-induced reinstatement test was conducted on the day following the last extinction session. Rats were pretreated with vehicle, compounds 2 (15, 30 mg/kg) or 34 (10 mg/kg) 10 min prior to a priming injection of cocaine (10 mg/kg, i.p.) administered immediately before the start of the reinstatement session.
Data analyses: Data are expressed as mean±S.E.M. Differences in active lever responding between the last extinction session and reinstatement session were determined with paired t tests (within subjects comparison). The effects of compounds 2 on reinstatement were analyzed by a one-way analysis of variance (ANOVA) followed by post hoc Bonferroni's test (between subjects comparison). The effects of compounds 34 on reinstatement was analyzed by Student's t test. P<0.05 was considered statistically significant.

Data set [3] deals with T1, human CB1 receptor (Homo sapiens, UniProt P21554).
T1 construct: host or cells: CHO-RD-HGA16 cells (CHO cells overexpressing promiscuous Galpha16)
The experiment in a line: CB1 calcium mobilization assay, agonist screen. The class given is cell-based. To be noted: Table 1; 10,000 nM final concentration; mean ± SD.
Procedure: CHO-RD-HGA16 cells (Molecular Devices, CA) stably expressing the human CB1 receptor were plated into 96-well black-walled assay plates at 25,000 cells/well in 100 μL of Ham's F12 (supplemented with 10% fetal bovine serum, 100 units of penicillin/streptomycin, and 100 μg/mL Normocin) and incubated overnight at 37° C., 5% CO2. Calcium 5 dye (Molecular Devices, CA) was reconstituted according to the manufacturer's instructions. The reconstituted dye was diluted 1:40 in prewarmed (37° C.) assay buffer (1×HBSS, 20 mM HEPES, 2.5 mM probenecid, pH 7.4 at 37° C.). Growth medium was removed, and the cells were gently washed with 100 μL of prewarmed (37° C.) assay buffer. The cells were incubated for 45 min at 37° C., 5% CO2 in 200 μL of the diluted Calcium 5 dye solution. […] Serial dilutions of the test compounds were prepared at 10× the desired final concentration in 2.25% BSA/4.5% DMSO/4.5% EtOH/assay buffer. After the dye loading incubation period, the cells were pretreated with 25 μL of the test compound serial dilutions and incubated for 15 min at 37° C. After the pretreatment incubation period, the plate was read with a FLIPR Tetra (Molecular Devices, CA). Calcium-mediated changes in fluorescence were monitored every 1 s over a 90 s time period, with the Tetra adding 25 μL of the CP55,940 EC80 concentration at the 10s time point (excitation/emission: 485/525 nm). Relative fluorescence units (RFU) were plotted against the log of compound concentrations. Data were fit to a three-parameter logistic curve to generate IC50 values (GraphPad Prism 6.0, CA). […] For agonist screens, the above procedure was followed except that cells were pretreated with 2.25% BSA/4.5% DMSO/4.5% EtOH/assay buffer and the Tetra added single concentration dilutions of the test compounds prepared at 10× the desired final concentration in 0.25% BSA/0.5% DMSO/0.5% EtOH/assay buffer. Test compound RFUs were compared to the CP55,940 Emax RFUs to generate % Emax values.

A further data set has as its target T2, CB1 receptor (Mus musculus, UniProt P47746).
T2 construct: from tissue; host or cells: cerebellar membranes of adult male CD-1 mice
Briefly: [35S]GTP-γ-S binding assay in mouse cerebellar membranes, CP55,940-stimulated. To be noted: CP55,940 (100 nM) stimulation, mean (95% confidence interval). The class given is biochemical.

The target in data set [4] is T1, human CB1 receptor. Briefly: CB1 calcium mobilization assay (antagonist mode, against EC80 of CP55,940). The class given is cell-based. To be noted: Table 1; against EC80 (100 nM) of CP55,940; mean ± S.E.M.; read-out: CB1 calcium assay IC50.
Procedure: CHO-RD-HGA16 cells (Molecular Devices, CA) stably expressing the human CB1 receptor were plated into 96-well black-walled assay plates at 25,000 cells/well in 100 μL of Ham's F12 (supplemented with 10% fetal bovine serum, 100 units of penicillin/streptomycin, and 100 μg/mL Normocin) and incubated overnight at 37° C., 5% CO2. Calcium 5 dye (Molecular Devices, CA) was reconstituted according to the manufacturer's instructions. The reconstituted dye was diluted 1:40 in prewarmed (37° C.) assay buffer (1×HBSS, 20 mM HEPES, 2.5 mM probenecid, pH 7.4 at 37° C.). Growth medium was removed, and the cells were gently washed with 100 μL of prewarmed (37° C.) assay buffer. […] After the pretreatment incubation period, the plate was read with a FLIPR Tetra (Molecular Devices, CA). […] Relative fluorescence units (RFU) were plotted against the log of compound concentrations. Data were fit to a three-parameter logistic curve to generate IC50 values (GraphPad Prism 6.0, CA). […] Test compound RFUs were compared to the CP55,940 Emax RFUs to generate % Emax values.
In these assays, CHO cells that overexpress the promiscuous Gα16 protein were engineered to stably express the CB1 or CB2 receptor. Compounds were evaluated for their ability to decrease the mobilization of intracellular calcium levels stimulated by CP55,940.

Some results are limits rather than exact numbers.

T1 sequence (P21554 whole entry): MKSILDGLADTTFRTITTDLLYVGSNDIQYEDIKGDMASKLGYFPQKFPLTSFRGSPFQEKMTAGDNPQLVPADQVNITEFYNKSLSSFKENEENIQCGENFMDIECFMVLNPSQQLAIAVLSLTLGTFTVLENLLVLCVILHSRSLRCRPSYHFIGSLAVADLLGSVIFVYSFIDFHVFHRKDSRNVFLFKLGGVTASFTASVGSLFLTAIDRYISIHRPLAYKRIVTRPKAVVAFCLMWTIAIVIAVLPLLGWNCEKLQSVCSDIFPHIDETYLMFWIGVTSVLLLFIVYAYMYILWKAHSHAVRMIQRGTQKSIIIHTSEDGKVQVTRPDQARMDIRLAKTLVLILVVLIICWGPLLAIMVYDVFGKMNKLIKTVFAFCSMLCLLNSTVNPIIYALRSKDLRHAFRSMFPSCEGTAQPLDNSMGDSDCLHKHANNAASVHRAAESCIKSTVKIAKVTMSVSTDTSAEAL
T2 sequence (P47746 whole entry): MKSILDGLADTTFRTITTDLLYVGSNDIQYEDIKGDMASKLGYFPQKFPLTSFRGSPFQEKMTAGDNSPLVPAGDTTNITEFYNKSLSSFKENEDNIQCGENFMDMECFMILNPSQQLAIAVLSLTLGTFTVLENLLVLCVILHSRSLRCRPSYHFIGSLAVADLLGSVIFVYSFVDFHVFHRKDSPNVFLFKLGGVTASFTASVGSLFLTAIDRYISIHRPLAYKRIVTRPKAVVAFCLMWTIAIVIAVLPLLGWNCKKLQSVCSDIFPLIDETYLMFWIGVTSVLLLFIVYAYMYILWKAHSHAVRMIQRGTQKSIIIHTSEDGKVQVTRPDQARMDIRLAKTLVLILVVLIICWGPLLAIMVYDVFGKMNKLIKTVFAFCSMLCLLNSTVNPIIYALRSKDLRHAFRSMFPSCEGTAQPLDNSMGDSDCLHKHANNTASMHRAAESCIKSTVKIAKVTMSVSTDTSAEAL

For `O=C(Nc1ccc(Cl)cc1)Nc1cccc(-c2ccc(F)cc2)c1` [Compound 34, 3-(4-Chlorophenyl)-1-[3-(4-fluorophenyl)phenyl]urea], the half-life in data set [1] was greater than 5 h. In data set [1] (read-out: Clearance), the microsomal CLint is less than 4.6 µL/min/mg. The “Attenuation of cocaine-induced reinstatement of cocaine-seeking behavior” value in data set [2] (dose 10 mg/kg, cocaine prime 10 mg/kg i.p.) was “produced the same degree of attenuation as that of 30 mg/kg of B”; in data set [2] (pretreatment 10 min prior to cocaine prime 10 mg/kg i.p.), “attenuated the resumption of extinguished cocaine-seeking behavior”. For the same molecule, the “CB1 calcium assay Agonist screen (% CP55, 940 Emax)” value at human CB1 receptor [3] was 8.8 ± 1.1 % CP55, 940 Emax. The IC50 at CB1 receptor was found to be 0.151 µM; at human CB1 receptor [4], 0.023 ± 0.002 µM.
